Measured values: US9642831B2, “Substituted chromanes and method of use” (AbbVie S.á.r.l., priority 2014, dated 2017)
One block for each compound: values may come before it.

Target: F508delCFTR (Homo sapiens, UniProt P13569, DEL508-508)
Assay: Cell Surface Expression-Horse Radish Peroxidase (CSE-HRP) assay
Format: cell-based
Design: expressed in transfected cells; host or cells: CFBE41o- human lung derived epithelial cell line, doxycycline-inducible
Settings: CFBE4lo-F508delCFTR-HRP cells; for EC50: 18-24 hours at 33° C., 8-point curve, highest concentration 20 μM, luminescence readout
Text: Cell Surface Expression-Horse Radish Peroxidase (CSE-HRP) Assay:
A cellular assay for measuring the F508delCFTR cell surface expression after correction with test compounds was developed in human lung derived epithelial cell line (CFBE4lo-) (Veit G et al, (2012) Mol Biol Cell. 23(21): 4188-4202). This was achieved by expressing the F508delCFTR mutation along with a horseradish peroxidase (HRP) in the fourth exofacial loop and then measuring the HRP activity using luminescence readout from these cells, CFBE4lo-F508delCFTR-HRP, that were incubated overnight with the test corrector compounds. Briefly, for this primary assay, the CFBE4lo-F508delCFTR-HRP cells were plated in 384-well plates (Greiner Bio-one; Cat 781080) at 4,000 cells/well along with 0.5 μg/mL doxycycline to induce the F508delCFTR-HRP expression and further incubated at 37° C., 5% CO2 for 72 hours. The test compounds were then added at the required concentrations and further incubated for 18-24 hours at 33° C. The highest concentration tested was 20 μM with an 8-point concentration response curve using a 3-fold dilution. Three replicate plates were run to determine one EC50. All plates contained negative controls (dimethyl sulfoxide, DMSO) and positive controls (3 μM of 3-[(2R,4R)-4-({[1-(2,2-difluoro-1,3-benzodioxol-5-yl)cyclopropyl]carbonyl}amino)-7-methoxy-3,4-dihydro-2H-chromen-2-yl]benzoic acid) as well as on-plate concentration response of the positive control. Post incubation, the plates were washed 5× times with Dulbecco's phosphate buffered saline (DPBS), followed by the addition of the HRP substrate, luminol (50 μL), and measuring the HRP activity using luminescence readout on EnVision® Multilabel Plate Reader (Perkin Elmer; product number 2104-0010). The raw counts from the experiment are analyzed using Accelrys® Assay Explorer v3.3.
Z′ greater than 0.5 was used as passing quality control criteria for the plates.
The Z′ is defined as: 1−[3*SDPositive Control+3*SDNegative Control/Absolute(MeanPositive Control−MeanNegative Control)] wherein “SD” is standard deviation.
The % activity measured at each of the 8 test concentrations of the test compound was normalized to the on-plate positive control using the following formula: % activity=[(test compound response−DMSO response)/(positive control response−DMSO response)]*100
The maximum % activity achieved for the test compound at any tested concentration is presented in Table 1 along with the EC50 calculated using the following general sigmoidal curve with variable Hill slope equation (described as Model 42 in the Accelrys® Assay Explorer v3.3 software): y=(a−d)/(1+(x/c)^b)+d
General sigmoidal curve with concentration, response, top, bottom, EC50 and Hill slope.
This model describes a sigmoidal curve with an adjustable baseline, a. The equation can be used to fit curves where response is either increasing or decreasing with respect to the independent variable, “x”.
“x” is a concentration of drug under test.
“a” is the maximum response, and “d” is the minimum response
“c” is the inflection point (EC50) for the curve. That is, “y” is halfway between the lower and upper asymptotes when x=c.
“b” is the slope-factor or Hill coefficient. The sign of b is positive when the response increases with increasing dose and is negative when the response decreases with increasing dose (inhibition).

[1] = maximum % activity at any tested concentration, normalized to on-plate positive control (3 μM Example 1)

Chain of F508delCFTR (P13569 with tags, fused parts or gaps DEL508-508): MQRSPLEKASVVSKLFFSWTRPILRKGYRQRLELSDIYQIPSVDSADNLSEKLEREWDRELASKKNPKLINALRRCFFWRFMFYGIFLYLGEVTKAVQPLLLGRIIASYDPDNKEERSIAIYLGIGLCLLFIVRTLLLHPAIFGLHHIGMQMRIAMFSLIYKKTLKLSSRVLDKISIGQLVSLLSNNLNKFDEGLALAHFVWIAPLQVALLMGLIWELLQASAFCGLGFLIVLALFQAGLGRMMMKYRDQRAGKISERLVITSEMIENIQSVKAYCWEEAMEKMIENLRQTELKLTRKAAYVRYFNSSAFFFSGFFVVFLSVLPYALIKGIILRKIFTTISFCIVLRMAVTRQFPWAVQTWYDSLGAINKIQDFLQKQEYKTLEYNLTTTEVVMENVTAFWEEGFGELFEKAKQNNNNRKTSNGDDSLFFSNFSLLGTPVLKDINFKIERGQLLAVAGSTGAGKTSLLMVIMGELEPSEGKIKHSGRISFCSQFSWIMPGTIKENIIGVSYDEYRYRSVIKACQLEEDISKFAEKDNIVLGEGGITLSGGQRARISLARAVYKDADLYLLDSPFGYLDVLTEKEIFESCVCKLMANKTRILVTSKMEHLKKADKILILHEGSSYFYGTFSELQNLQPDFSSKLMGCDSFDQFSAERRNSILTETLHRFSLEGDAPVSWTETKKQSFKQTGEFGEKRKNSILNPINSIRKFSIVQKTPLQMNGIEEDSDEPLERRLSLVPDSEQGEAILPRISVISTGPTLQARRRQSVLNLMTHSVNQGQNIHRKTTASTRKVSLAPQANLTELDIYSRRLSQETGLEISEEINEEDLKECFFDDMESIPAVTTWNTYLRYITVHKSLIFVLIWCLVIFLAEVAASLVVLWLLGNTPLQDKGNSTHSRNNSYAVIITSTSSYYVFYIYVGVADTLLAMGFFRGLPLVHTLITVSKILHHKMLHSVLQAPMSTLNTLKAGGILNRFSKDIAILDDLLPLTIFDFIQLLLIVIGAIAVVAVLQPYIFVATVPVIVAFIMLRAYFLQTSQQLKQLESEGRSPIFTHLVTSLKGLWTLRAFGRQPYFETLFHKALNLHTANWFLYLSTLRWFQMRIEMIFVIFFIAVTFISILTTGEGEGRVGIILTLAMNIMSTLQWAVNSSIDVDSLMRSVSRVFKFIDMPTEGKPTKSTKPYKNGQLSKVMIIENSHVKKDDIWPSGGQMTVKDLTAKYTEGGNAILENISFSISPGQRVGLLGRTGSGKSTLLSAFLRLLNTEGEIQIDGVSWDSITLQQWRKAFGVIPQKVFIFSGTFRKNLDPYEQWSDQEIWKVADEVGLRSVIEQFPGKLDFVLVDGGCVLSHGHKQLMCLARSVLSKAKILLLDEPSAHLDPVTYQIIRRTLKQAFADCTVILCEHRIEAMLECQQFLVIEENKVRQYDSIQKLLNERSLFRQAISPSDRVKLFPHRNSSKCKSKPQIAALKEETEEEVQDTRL

EC50: 10.1 µM | Emax [1]: 45%
SMILES: O=C(NC1CC(c2ccccc2Cl)Oc2ccccc21)C1(c2ccc3c(c2)OC(F)(F)O3)CC1 (stereo not shown) [Example 65, N-[2-(2-chlorophenyl)-3,4-dihydro-2H-chromen-4-yl]-1-(2,2-difluoro-1,3-benzodioxol-5-yl)cyclopropanecarboxamide]

EC50: 3.08 µM | Emax [1]: 40%
SMILES: O=C(OCc1ccccc1)N1CC2(CC(NC(=O)C3(c4ccc5c(c4)OC(F)(F)O5)CC3)c3ccc(F)cc3O2)C1 (stereo not shown) [Example 100, benzyl 4′-({[1-(2,2-difluoro-1,3-benzodioxol-5-yl)cyclopropyl]carbonyl}amino)-7′-fluoro-3′,4′-dihydro-1H-spiro[azetidine-3,2′-chromene]-1-carboxylate]

EC50: 6.12 µM | Emax [1]: 64%
SMILES: CCOC(=O)C1CC(C2CC(NC(=O)C3(c4ccc5c(c4)OC(F)(F)O5)CC3)c3ccccc3O2)C1 (stereo not shown) [Example 151, ethyl 3-[4-({[1-(2,2-difluoro-1,3-benzodioxol-5-yl)cyclopropyl]carbonyl}amino)-3,4-dihydro-2H-chromen-2-yl]cyclobutanecarboxylate]

EC50: 6.2 µM | Emax [1]: 44%
SMILES: COc1ccc2c(c1)OC1(CC(C(=O)O)C1)CC2NC(=O)C1(c2ccc3c(c2)OC(F)(F)O3)CC1 (stereo not shown) [Example 129, 4-({[1-(2,2-difluoro-1,3-benzodioxol-5-yl)cyclopropyl]carbonyl}amino)-7-methoxy-3,4-dihydrospiro[chromene-2,1′-cyclobutane]-3′-carboxylic acid]

EC50: 0.91 µM | Emax [1]: 102%
SMILES: COC(=O)c1cccc([C@H]2C[C@@H](NC(=O)C3(c4ccc5c(c4)OC(F)(F)O5)CC3)c3cc(C)ccc3O2)c1 [Example 11, methyl 3-[(2R,4R)-4-({[1-(2,2-difluoro-1,3-benzodioxol-5-yl)cyclopropyl]carbonyl}amino)-6-methyl-3,4-dihydro-2H-chromen-2-yl]benzoate]

EC50: 5.28 µM | Emax [1]: 95%
SMILES: O=C(N[C@@H]1CC2(CCCC2)Oc2ccccc21)C1(c2ccc3c(c2)OC(F)(F)O3)CC1 [Example 78, 1-(2,2-difluoro-1,3-benzodioxol-5-yl)-N-[(4R)-3,4-dihydrospiro[chromene-2,1′-cyclopentan]-4-yl]cyclopropanecarboxamide]

EC50: 1.71 µM | Emax [1]: 67%
SMILES: COc1ccc2c(c1)O[C@@H](C(=O)NCCc1cccc(O)c1)C[C@@H]2NC(=O)C1(c2ccc3c(c2)OC(F)(F)O3)CC1 (racemic) [Example 198, rac-(2R,4S)-4-({[1-(2,2-difluoro-1,3-benzodioxol-5-yl)cyclopropyl]carbonyl}amino)-N-[2-(3-hydroxyphenyl)ethyl]-7-methoxy-3,4-dihydro-2H-chromene-2-carboxamide]

Second part, the compound before the results:

SMILES: O=C(NC1CC(c2ccc(F)cc2)Oc2ccccc21)C1(c2ccc3c(c2)OC(F)(F)O3)CC1 (stereo not shown) [Example 71, 1-(2,2-difluoro-1,3-benzodioxol-5-yl)-N-[2-(4-fluorophenyl)-3,4-dihydro-2H-chromen-4-yl]cyclopropanecarboxamide]
EC50: 2.84 µM | Emax [1]: 91%

SMILES: O=C(O)c1csc([C@H]2C[C@@H](NC(=O)C3(c4ccc5c(c4)OC(F)(F)O5)CC3)c3ccccc3O2)n1 (stereo in doubt) [Example 145, rel-2-[(2R,4R)-4-({[1-(2,2-difluoro-1,3-benzodioxol-5-yl)cyclopropyl]carbonyl}amino)-3,4-dihydro-2H-chromen-2-yl]-1,3-thiazole-4-carboxylic acid]
EC50: 2.45 µM | Emax [1]: 96%

SMILES: CC(=O)N1CCC2(CC1)CC(NC(=O)C1(c3ccc4c(c3)OC(F)(F)O4)CC1)c1ccc(F)cc1O2 (stereo not shown) [Example 102, N-(1′-acetyl-7-fluoro-3,4-dihydrospiro[chromene-2,4′-piperidin]-4-yl)-1-(2,2-difluoro-1,3-benzodioxol-5-yl)cyclopropanecarboxamide]
EC50: 4.86 µM | Emax [1]: 89%

SMILES: COc1ccc2c(c1)O[C@@H](C(=O)N1CCCOCC1)C[C@@H]2NC(=O)C1(c2ccc3c(c2)OC(F)(F)O3)CC1 (racemic) [Example 194, rac-1-(2,2-difluoro-1,3-benzodioxol-5-yl)-N-[(2R,4S)-7-methoxy-2-(1,4-oxazepan-4-ylcarbonyl)-3,4-dihydro-2H-chromen-4-yl]cyclopropanecarboxamide]
EC50: 0.88 µM | Emax [1]: 68%

SMILES: COc1ccc2c(c1)OC(c1ccc(Cl)c(Cl)c1)CC2NC(=O)C1(c2ccc3c(c2)OC(F)(F)O3)CC1 (stereo not shown) [Example 61, N-[2-(3,4-dichlorophenyl)-7-methoxy-3,4-dihydro-2H-chromen-4-yl]-1-(2,2-difluoro-1,3-benzodioxol-5-yl)cyclopropanecarboxamide]
EC50: 2.04 µM | Emax [1]: 132%

SMILES: Cc1ccc2c(c1)O[C@@H](c1cccc(C(=O)N3CCOC(CO)C3)c1)C[C@H]2NC(=O)C1(c2ccc3c(c2)OC(F)(F)O3)CC1 (stereo partly drawn) [Example 53, 1-(2,2-difluoro-1,3-benzodioxol-5-yl)-N-[(2R,4R)-2-(3-{[2-(hydroxymethyl)morpholin-4-yl]carbonyl}phenyl)-7-methyl-3,4-dihydro-2H-chromen-4-yl]cyclopropanecarboxamide]
EC50: 1.76 µM | Emax [1]: 90%

SMILES: COc1ccc2c(c1)O[C@@H](C(=O)NC(CO)c1ccccc1OC)C[C@@H]2NC(=O)C1(c2ccc3c(c2)OC(F)(F)O3)CC1 (mixture of isomers) [Example 197, rac-(2R,4S)-4-({[1-(2,2-difluoro-1,3-benzodioxol-5-yl)cyclopropyl]carbonyl}amino)-N-[2-hydroxy-1-(2-methoxyphenyl)ethyl]-7-methoxy-3,4-dihydro-2H-chromene-2-carboxamide]
EC50: 2.1 µM | Emax [1]: 73%

SMILES: O=C(O)c1cnc(C2CC(NC(=O)C3(c4ccc5c(c4)OC(F)(F)O5)CC3)c3ccccc3O2)s1 (single isomer, unassigned) [Example 133]
EC50: 7.02 µM | Maximum % activity (%) [1]: 25%

SMILES: CS(=O)(=O)N1CCC2(CC1)CC(NC(=O)C1(c3ccc4c(c3)OC(F)(F)O4)CC1)c1ccc(F)cc1O2 (stereo not shown) [Example 101, 1-(2,2-difluoro-1,3-benzodioxol-5-yl)-N-[7-fluoro-1′-(methylsulfonyl)-3,4-dihydrospiro[chromene-2,4′-piperidin]-4-yl]cyclopropanecarboxamide]
EC50: 6.65 µM | Emax [1]: 60%

SMILES: COC(=O)c1cccc([C@H]2C[C@H](NC(=O)C3(c4ccc5c(c4)OC(F)(F)O5)CC3)c3ccccc3O2)c1 [Example 7, methyl 3-[(2R,4S)-4-({[1-(2,2-difluoro-1,3-benzodioxol-5-yl)cyclopropyl]carbonyl}amino)-3,4-dihydro-2H-chromen-2-yl]benzoate]
EC50: 5.84 µM | Emax [1]: 58%

SMILES: COc1ccc2c(c1)O[C@H](c1nc(C(=O)O)cs1)C[C@@H]2NC(=O)C1(c2ccc3c(c2)OC(F)(F)O3)CC1 (stereo in doubt) [Example 158, rel-2-[(2S,4S)-4-({[1-(2,2-difluoro-1,3-benzodioxol-5-yl)cyclopropyl]carbonyl}amino)-7-methoxy-3,4-dihydro-2H-chromen-2-yl]-1,3-thiazole-4-carboxylic acid]
EC50: 6.65 µM | Emax [1]: 101%

SMILES: COC(=O)c1cccc([C@H]2C[C@@H](NC(=O)C3(c4ccc5c(c4)OC(F)(F)O5)CC3)c3cc(OC)ccc3O2)c1 [Example 21, methyl 3-[(2R,4R)-4-({[1-(2,2-difluoro-1,3-benzodioxol-5-yl)cyclopropyl]carbonyl}amino)-6-methoxy-3,4-dihydro-2H-chromen-2-yl]benzoate]
EC50: 0.8 µM | Emax [1]: 142%

SMILES: COc1cccc([C@H]2C[C@@H](NC(=O)C3(c4ccc5c(c4)OC(F)(F)O5)CC3)c3ccc(O)cc3O2)c1 [Example 20, 1-(2,2-difluoro-1,3-benzodioxol-5-yl)-N-[(2R,4R)-7-hydroxy-2-(3-methoxyphenyl)-3,4-dihydro-2H-chromen-4-yl]cyclopropanecarboxamide]
EC50: 4.62 µM | Emax [1]: 30%
